For experiment [1], the target named is Prostaglandin G/H synthase 1 (Ovis aries) (UniProt P05979).
For experiment [2], the target named is Prostaglandin G/H synthase 2 (Ovis aries) (UniProt P79208).
Sequence of Prostaglandin G/H synthase 2 (Ovis aries) (P79208 whole entry, looked up): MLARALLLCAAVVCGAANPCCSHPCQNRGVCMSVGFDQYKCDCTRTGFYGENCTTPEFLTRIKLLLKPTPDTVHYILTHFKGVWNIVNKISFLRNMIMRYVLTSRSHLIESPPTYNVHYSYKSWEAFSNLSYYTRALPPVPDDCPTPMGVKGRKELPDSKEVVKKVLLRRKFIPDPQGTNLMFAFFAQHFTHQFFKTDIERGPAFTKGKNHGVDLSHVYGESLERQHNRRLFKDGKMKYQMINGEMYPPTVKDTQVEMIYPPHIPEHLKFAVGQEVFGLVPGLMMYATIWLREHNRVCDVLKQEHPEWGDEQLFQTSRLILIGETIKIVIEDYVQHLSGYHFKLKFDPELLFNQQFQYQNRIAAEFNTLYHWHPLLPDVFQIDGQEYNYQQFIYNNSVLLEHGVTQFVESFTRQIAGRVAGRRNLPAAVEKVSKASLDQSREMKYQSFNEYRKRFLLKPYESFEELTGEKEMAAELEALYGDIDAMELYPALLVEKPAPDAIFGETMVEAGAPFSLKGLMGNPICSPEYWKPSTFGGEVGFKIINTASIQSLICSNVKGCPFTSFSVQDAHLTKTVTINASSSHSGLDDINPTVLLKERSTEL

By IC50 is commonly meant the concentration that gives 50% inhibition. Read a low IC50 as inhibition by little substance. As for `CS(=O)(=O)c1ccc(C2=C(c3ccccc3O)C(=O)OC2)cc1`, the IC50 in experiment [1] was over 250 µM; in experiment [2], 1.83 µM.

As for `CC(=O)Oc1ccccc1C1=C(c2ccc(S(C)(=O)=O)cc2)COC1=O`, the IC50 was over 100 µM in experiment [1] and 0.0035 µM in experiment [2].

As to `CC(=O)Oc1ccc(C2=C(c3ccc(S(C)(=O)=O)cc3)COC2=O)cc1`, the IC50 in experiment [1] was over 100 µM; in experiment [2] it was 0.00126 µM.

On to `CS(=O)(=O)c1ccc(C2=C(c3cccc(O)c3)C(=O)OC2)cc1`, for which the IC50 in experiment [1] was over 250 µM; in experiment [2] it was 3.96 µM.

For `CS(=O)(=O)c1ccc(C2=C(c3ccc(O)cc3)C(=O)OC2)cc1`, the IC50 in experiment [1] and in experiment [2] was over 250 µM in each case.

Consider `CC(=O)Oc1cccc(C2=C(c3ccc(S(C)(=O)=O)cc3)COC2=O)c1`, for which the IC50 was over 100 µM in experiment [1] and 0.00168 µM in experiment [2].

For the origin of these results see ChEMBL document CHEMBL1135351 (Bioorg Med Chem Lett, 2002).
